US20160031941A1, “TARGETING PEPTIDES THAT BIND S. MUTANS, CONSTRUCTS COMPRISING SUCH PEPTIDES AND USES THEREOF” (priority 2014, published 2016)
Read-outs that look alike come from different tables or passages of the source. Ends that are not written are not given here. Peptide text beside a SMILES is read from it.

Columns and labels:
S. pneumoniae = format: cell-based
Description: (§1) Typically, the in vitro antimicrobial activity of antimicrobial agents is tested using standard NCCLS bacterial inhibition assays, or MIC tests (see, National Committee on Clinical Laboratory Standards “Performance Standards for Antimicrobial Susceptibility Testing,” NCCLS Document M100-S5 Vol. 14, No. 16, December 1994; “Methods for dilution antimicrobial susceptibility test for bacteria that grow aerobically-Third Edition,” Approved Standard M7-A3, National Committee for Clinical Standards, Villanova, Pa.).

A. niger = assay: MIC of antimicrobial peptides; format: cell-based
Description: as §1

S. mutans [1] = conditions: Streptococcus mutans
S. mutans [2] = format: cell-based
Description: as §1

B. subtilis = assay: MIC of antimicrobial peptides; format: cell-based
Description: as §1

MRSA = assay: MIC of antimicrobial peptides; format: cell-based, methicillin resistant Staphylococcus aureus
Description: as §1

T. rubrum = assay: MIC of antimicrobial peptides; format: cell-based
Description: as §1

P. aeruginosa = format: cell-based
Description: as §1

C. difficile = format: cell-based
Description: as §1

A. baumannii = format: cell-based
Description: as §1

C. jeikeium = format: cell-based
Description: as §1

S. epidermidis = format: cell-based
Description: as §1

E. coli = assay: MIC of antimicrobial peptides; format: cell-based
Description: as §1

LSEMERRRLRKRA-NH2 [PF-529]
MIC (S. pneumoniae): 50 µM | MIC (A. niger): A. niger, 50 μM

TFFRLFNRSFTQALFKGGGKNLRIIRKGIHIIKKY-NH2 (C-terminus assumed) [G15-F15_C16G2]
% viability remaining (S. mutans [1]): 29%

VYRKRKSILKIYAKLKGWH [K-2]
MIC (S. mutans [2]): 12.5 µM

CC[C@H](C)[C@H](NC(=O)CNC(=O)[C@@H](N)CCSC)C(=O)N[C@H](C(=O)N[C@@H](C)C(=O)NCC(=O)N[C@H](C(=O)N[C@H](C(=O)N[C@@H](CCCCN)C(=O)N[C@@H](Cc1ccccc1)C(=O)N[C@H](C(=O)N[C@@H](CCCCN)C(=O)NCC(=O)N[C@@H](CC(C)C)C(=O)N[C@H](C(=O)N[C@@H](CCC(=O)O)C(=O)N[C@@H](CCCCN)C(=O)N[C@@H](Cc1ccccc1)C(=O)N[C@H](C(=O)NCC(=O)N[C@@H](CCCCN)C(=O)O)[C@@H](C)O)[C@@H](C)CC)[C@@H](C)CC)[C@@H](C)CC)[C@@H](C)CC)[C@@H](C)CC [PF-006]
MIC (B. subtilis): B. subtilis, 25 μM | MIC (MRSA): MRSA, 50 μM

TFFRLFNRSFTQALGKGGGKNLRIIRKGIHIIKKY-NH2 [C16G2, reference compound]
% viability remaining (S. mutans [1]): antimicrobial peptide and GGG linker showed 5-18% remaining activity

MIRIRSPTKKKLNRNSISDWKSNTSGRFFY [PF-283]
MIC (B. subtilis): B. subtilis, 50 μM | MIC (T. rubrum): T. rubrum, 50 μM

TQFRLFNRSFTQALGKGGGKNLRIIRKGIHIIKKY-NH2 (C-terminus assumed) [F2 to Q2_C16G2]
% viability remaining (S. mutans [1]): 47%

TFFRLFNRSQTQALGKGGGKNLRIIRKGIHIIKKY-NH2 (C-terminus assumed) [F10 to Q10_C16G2]
% viability remaining (S. mutans [1]): 73%

KFQGEFTNIGQSYIVSASHMSTSLNTGK [PF-583]
MIC (MRSA): MRSA, 50 μM

VLPFPAIPLSRRRACVAAPRPRSRQRAS [PF-168]
MIC (MRSA): MRSA, 50 μM

LGLTAGVAYAAQPTNQPTNQPTNQPTNQPTNQPTNQPRW-NH2 [PF-520]
MIC (S. pneumoniae; S. pneumoniae): 50 µM

YIQFHLNQQPRPKVKKIKIFL-NH2 [PF-531]
MIC (P. aeruginosa): 50 µM | MIC (C. difficile): 12.5 µM | MIC (S. mutans [2]): 12.5 µM | MIC (A. baumannii): 25 µM | MIC (C. jeikeium): 6.25 µM | MIC (S. epidermidis): 50 µM | MIC (A. niger): A. niger, 25 μM | MIC (B. subtilis): B. subtilis, 25 μM | MIC (T. rubrum): T. rubrum, 50 μM

TKKIELKRFVDAFVKKSYENYILERELKKLIKAINEELPTK [PF-600]
MIC (E. coli): E. coli, 50 μM

TLFRLFNRSFTQALGKGGGKNLRIIRKGIHIIKKY-NH2 (C-terminus assumed) [F2-L2_C16G2]
% viability remaining (S. mutans [1]): 63%

MRFGSLALVAYDSAIKHSWPRPSSVRRLRM [PF-672]
MIC (A. niger): A. niger, 3 μM | MIC (MRSA): MRSA, 1.56 μM

TFFRLLNRSFTQALGKGGGKNLRIIRKGIHIIKKY-NH2 (C-terminus assumed) [F6-L6_C16G2]
% viability remaining (S. mutans [1]): 43%

FIRKFLQKLHL [K-16]
MIC (P. aeruginosa): 12.5 µM | MIC (S. mutans [2]; S. mutans): S. mutans, 8 μM | MIC (MRSA): MRSA, 25 μM

LSLATFAKIFMTRSNWSLKRFNRL [PF-278]
MIC (T. rubrum): T. rubrum, 50 μM

GSVIKKRRKRMAKKKHRKLLKKTRIQRRRAGK [PF-527]
MIC (A. niger): A. niger, 50 μM | MIC (T. rubrum): T. rubrum, 25 μM | MIC (MRSA): MRSA, 50 μM

WSRVPGHSDTGWKVWHRW-NH2 [PF-547]
MIC (S. mutans [2]): 12.5 µM | MIC (B. subtilis): B. subtilis, 25 μM | MIC (T. rubrum): T. rubrum, 25 μM

SLQSQLGPCLHDQRH [PF-448]
MIC (A. niger): A. niger, 25 μM

TFFRLQNRSFTQALGKGGGKNLRIIRKGIHIIKKY-NH2 (C-terminus assumed) [F6 to Q6_C16G2]
% viability remaining (S. mutans [1]): 79%

TFFRLFNRSFTQALDKGGGKNLRIIRKGIHIIKKY-NH2 (C-terminus assumed) [G15-D15_C16G2]
% viability remaining (S. mutans [1]): 47%

KFSDQIDKGQDALKDKLGDL [PF-525]
MIC (A. niger): A. niger, 50 μM

TFFRLFNRSFTQALAKGGGKNLRIIRKGIHIIKKY-NH2 (C-terminus assumed) [G15-A15_C16G2]
% viability remaining (S. mutans [1]): 47%

TLFRLLNRSLTQALGKGGGKNLRIIRKGIHIIKKY-NH2 (C-terminus assumed) [F2F6F10-L2L6L10_C16G2]
% viability remaining (S. mutans [1]): 26%

TFFRLFNRSLTQALGKGGGKNLRIIRKGIHIIKKY-NH2 (C-terminus assumed) [F10-L10_C16G2]
% viability remaining (S. mutans [1]): 30%

TAFRLANRSATQALGKGGGKNLRIIRKGIHIIKKY-NH2 (C-terminus assumed) [F2/6/10-A2/6/10_C16G2]
% viability remaining (S. mutans [1]): 78%

CC[C@H](C)[C@H](NC(=O)CNC(=O)[C@H](CCCCN)NC(=O)[C@H](CCCNC(=N)N)NC(=O)[C@@H](NC(=O)[C@@H](NC(=O)[C@H](CCCNC(=N)N)NC(=O)[C@H](CC(C)C)NC(=O)[C@H](CC(N)=O)NC(=O)[C@H](CCCCN)NC(=O)CNC(=O)CNC(=O)CNC(=O)[C@H](CCCCN)NC(=O)CNC(=O)[C@H](CC(C)C)NC(=O)[C@H](C)NC(=O)[C@H](CCC(N)=O)NC(=O)[C@@H](NC(=O)[C@H](CCC(N)=O)NC(=O)[C@H](CO)NC(=O)[C@H](CCCNC(=N)N)NC(=O)[C@H](CC(N)=O)NC(=O)[C@H](CCC(N)=O)NC(=O)[C@H](CC(C)C)NC(=O)[C@H](CCCNC(=N)N)NC(=O)[C@H](Cc1ccccc1)NC(=O)[C@H](CCC(N)=O)NC(=O)[C@@H](N)[C@@H](C)O)[C@@H](C)O)[C@@H](C)CC)[C@@H](C)CC)C(=O)N[C@@H](Cc1c[nH]cn1)C(=O)N[C@H](C(=O)N[C@H](C(=O)N[C@@H](CCCCN)C(=O)N[C@@H](CCCCN)C(=O)N[C@@H](Cc1ccc(O)cc1)C(N)=O)[C@@H](C)CC)[C@@H](C)CC [F7/11/15 sub Q_C16G2]
% viability remaining (S. mutans [1]): 93%

CSCC[C@H](N)C(=O)N[C@@H](CCCCN)C(=O)N[C@@H](CCCNC(=N)N)C(=O)N[C@@H](CCCNC(=N)N)C(=O)N[C@@H](CCCNC(=N)N)C(=O)N[C@@H](CS)C(=O)N[C@@H](CC(N)=O)C(=O)N[C@@H](Cc1c[nH]c2ccccc12)C(=O)N[C@@H](CS)C(=O)NCC(=O)N[C@@H](CCCCN)C(=O)N[C@@H](CC(C)C)C(=O)N[C@@H](Cc1ccccc1)C(=O)N[C@@H](Cc1ccc(O)cc1)C(=O)N[C@@H](CC(C)C)C(=O)N[C@@H](CCC(=O)O)C(=O)N[C@@H](CCC(=O)O)C(=O)N[C@@H](CCCCN)C(=O)N[C@@H](CO)C(=O)N[C@@H](CCCCN)C(=O)N[C@@H](CCC(=O)O)C(=O)N[C@@H](C)C(=O)N[C@@H](Cc1ccc(O)cc1)C(=O)N[C@@H](CS)C(=O)N[C@@H](CS)C(=O)N[C@@H](CCCCN)C(=O)N[C@@H](CCC(=O)O)C(=O)N[C@@H](CS)C(=O)N[C@@H](CCCNC(=N)N)C(=O)N[C@@H](CCCCN)C(=O)N[C@@H](CCCCN)C(=O)N[C@@H](C)C(=O)N[C@@H](CCCCN)C(=O)N[C@@H](CCCCN)C(=O)N[C@H](C(=O)N[C@@H](CCCCN)C(=O)N[C@@H](CCCCN)C(=O)O)C(C)C [PF-307] (H-MKRRRCNWCGKLFYLEEKSKEAYCCKECRKKAKKVKK-OH; N-terminus and C-terminus assumed)
MIC (B. subtilis): B. subtilis, 50 μM | MIC (T. rubrum): T. rubrum, 50 μM

FESKILNASKELDKEKKVNTALSFNSHQDFAKAYQNGKI [PF-606]
MIC (S. mutans [2]; S. mutans): S. mutans, 50 μM | MIC (E. coli): E. coli, 50 μM | MIC (MRSA): MRSA, 50 μM

RESKLIAMADMIRRRI-NH2 [PF-545]
MIC (MRSA): MRSA, 50 μM

NYAVVSHT [PF-209]
MIC (MRSA): MRSA, 50 μM

KNKKQTDILEKVKEILDKKKKTKSVGQKLY [PF-538]
MIC (C. difficile; C. difficile): C. difficile, 25 μM

TWFRLFNRSFTQALGKGGGKNLRIIRKGIHIIKKY-NH2 (C-terminus assumed) [F2-W2_C16G2]
% viability remaining (S. mutans [1]): 45%
